According to patent publication US7407958B2, “2-pyridyl substituted imidazoles as ALK5 and/or ALK4 inhibitors” (SK Chemicals Co., Ltd., priority 2004, dated 2008):

Assays:
Cdk5/p35 = Cdk5/p35 (Homo sapiens, UniProt Q00535); test: Protein kinase activity in vitro; type: biochemical
Insulin receptor = Insulin receptor (Homo sapiens, UniProt P06213); test: Protein kinase activity in vitro; type: biochemical
Lyn A = Lyn A (Homo sapiens, UniProt P07948); test: Protein kinase activity in vitro; type: biochemical; conditions: 10 μM (two lines printed)
Sequence of Lyn A (P07948 whole entry, species assumed): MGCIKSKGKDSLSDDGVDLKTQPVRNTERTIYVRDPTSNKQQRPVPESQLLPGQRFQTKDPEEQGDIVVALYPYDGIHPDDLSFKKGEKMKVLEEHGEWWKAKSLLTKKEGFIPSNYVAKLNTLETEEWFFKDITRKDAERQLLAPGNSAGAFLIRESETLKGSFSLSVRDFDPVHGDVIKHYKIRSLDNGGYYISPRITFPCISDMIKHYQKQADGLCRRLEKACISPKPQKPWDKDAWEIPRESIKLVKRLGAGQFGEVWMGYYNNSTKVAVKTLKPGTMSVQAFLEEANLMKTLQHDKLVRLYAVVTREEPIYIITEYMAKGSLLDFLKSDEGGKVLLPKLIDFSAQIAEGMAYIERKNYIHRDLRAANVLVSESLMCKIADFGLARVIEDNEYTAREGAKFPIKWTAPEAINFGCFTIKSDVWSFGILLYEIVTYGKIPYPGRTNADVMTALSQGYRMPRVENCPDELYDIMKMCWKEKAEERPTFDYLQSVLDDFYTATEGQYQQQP

PKBα/Akt1 = PKBα/Akt1 (Homo sapiens, UniProt P31749); test: Protein kinase activity in vitro; type: biochemical
CHK1 = CHK1 (Homo sapiens, UniProt O14757); test: Protein kinase activity in vitro; type: biochemical
Cdk1/Cyclin B = Cdk1/Cyclin B (Homo sapiens, UniProt P06493); test: Protein kinase activity in vitro; type: biochemical
IKK-1 = IKK-1 (Homo sapiens, UniProt O15111); test: Protein kinase activity in vitro; type: biochemical
IKK-2 = IKK-2 (Homo sapiens, UniProt O14920); test: Protein kinase activity in vitro; type: biochemical
p38δ = p38δ (Homo sapiens, UniProt O15264); test: Protein kinase activity in vitro; type: biochemical
Sequence of p38δ (O15264 whole entry): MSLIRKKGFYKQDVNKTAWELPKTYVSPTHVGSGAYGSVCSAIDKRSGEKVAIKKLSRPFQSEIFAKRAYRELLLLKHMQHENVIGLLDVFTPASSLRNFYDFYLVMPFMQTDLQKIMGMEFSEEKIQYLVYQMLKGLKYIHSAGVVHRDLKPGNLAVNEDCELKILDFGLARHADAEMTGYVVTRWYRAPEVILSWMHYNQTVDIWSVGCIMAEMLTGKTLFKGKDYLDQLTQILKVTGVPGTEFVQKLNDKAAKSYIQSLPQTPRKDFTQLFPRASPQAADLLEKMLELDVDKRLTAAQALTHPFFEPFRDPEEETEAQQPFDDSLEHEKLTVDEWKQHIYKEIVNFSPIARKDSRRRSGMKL

JNK1α1 = JNK1α1 (Homo sapiens, UniProt P45983); test: Protein kinase activity in vitro; type: biochemical
pp60^C-SRC = pp60^C-SRC (Homo sapiens, UniProt P12931); test: Protein kinase activity in vitro; type: biochemical
PKA, non-selective = test: Protein kinase activity in vitro; type: biochemical
PDK1 = PDK1 (Homo sapiens, UniProt O15530); test: Protein kinase activity in vitro; type: biochemical
ERK1 = ERK1 (Homo sapiens, UniProt P27361); test: Protein kinase activity in vitro; type: biochemical
PKCζ = PKCζ (Homo sapiens, UniProt Q05513); test: Protein kinase activity in vitro; type: biochemical
p70^56k = p70^56k (Homo sapiens, UniProt P23443); test: Protein kinase activity in vitro; type: biochemical
JNK2α2 = JNK2α2 (Homo sapiens, UniProt P45984); test: Protein kinase activity in vitro; type: biochemical
Sequence of JNK2α2 (P45984 whole entry): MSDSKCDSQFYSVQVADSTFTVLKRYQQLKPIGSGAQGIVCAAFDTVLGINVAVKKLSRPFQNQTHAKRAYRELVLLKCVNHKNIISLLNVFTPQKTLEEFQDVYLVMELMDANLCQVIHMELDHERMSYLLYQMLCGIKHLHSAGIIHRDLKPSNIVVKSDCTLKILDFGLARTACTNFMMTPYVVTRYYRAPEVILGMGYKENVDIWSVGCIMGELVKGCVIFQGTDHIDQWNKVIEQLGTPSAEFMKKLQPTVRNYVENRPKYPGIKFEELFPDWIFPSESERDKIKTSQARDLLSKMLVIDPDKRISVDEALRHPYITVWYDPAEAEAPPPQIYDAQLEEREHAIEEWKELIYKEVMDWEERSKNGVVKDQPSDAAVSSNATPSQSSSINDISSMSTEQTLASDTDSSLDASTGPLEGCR

ALK5 = ALK5 (Homo sapiens, UniProt P36897, T204D); test: biochemical
Description: The His-tagged, constitutively active ALK5 (T204D) and Smad3 full protein were expressed in insect cells using the Invitrogen BacNBlue baculovirus expression system. Expressed proteins were purified with Qiagen Ni-NTA resin column. The purified smad3 protein 200 ng was mixed with 100 μL of 0.1 M sodium bicarbonate coating buffer and coated into Flash-Plates by pipetting. Plates were covered and incubated at 4° C. for 16 hours. Then the plates were washed 3 times with 200 μL of coating buffer and allowed to block in 1% BSA in PBS at room temperature for 1 hour. The purified ALK5 protein 100 ng was mixed with 100 μL of reaction buffer containing 20 mM Tris-HCl (pH 7.4), 5 mM MgCl2, 1 mM CaCl2, 1 mM DTT, 1 μM ATP and 2 μCi ?-^32p-ATP, and 1 μL of each test compound of formula (I) prepared in 100% DMSO solution at different concentrations. The assay was then initiated with the addition of ALK5 reaction mixture into Smad3-coated Flash-Plates, followed by incubation at 30° C. for 3 hours. After incubation, the assay buffer was removed and washed 3 times with 200 μL of 10 mM sodium pyrophosphate solution. Then, the Flash-Plates were air-dried and counted on a Packard TopCount.

PKCη = PKCη (Homo sapiens, UniProt P24723); test: Protein kinase activity in vitro; type: biochemical
CHK2 = CHK2 (Homo sapiens, UniProt O96017); test: Protein kinase activity in vitro; type: biochemical
Sequence of CHK2 (O96017 whole entry, species assumed): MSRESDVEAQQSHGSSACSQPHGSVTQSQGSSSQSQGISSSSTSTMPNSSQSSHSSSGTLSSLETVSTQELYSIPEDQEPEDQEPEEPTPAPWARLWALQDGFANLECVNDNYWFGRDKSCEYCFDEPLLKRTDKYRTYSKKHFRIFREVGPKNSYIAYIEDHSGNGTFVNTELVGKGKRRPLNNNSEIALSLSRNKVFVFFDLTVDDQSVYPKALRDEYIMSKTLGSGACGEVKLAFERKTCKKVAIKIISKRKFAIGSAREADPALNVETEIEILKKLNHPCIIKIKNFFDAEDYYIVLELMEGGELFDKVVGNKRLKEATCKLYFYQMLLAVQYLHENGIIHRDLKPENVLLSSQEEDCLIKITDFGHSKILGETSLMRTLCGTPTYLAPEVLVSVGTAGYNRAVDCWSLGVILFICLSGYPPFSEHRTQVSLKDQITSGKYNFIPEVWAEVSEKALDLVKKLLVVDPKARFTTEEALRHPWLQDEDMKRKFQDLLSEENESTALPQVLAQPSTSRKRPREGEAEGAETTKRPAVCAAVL

HER2 receptor = HER2 receptor (Homo sapiens, UniProt P04626); test: Protein kinase activity in vitro; type: biochemical
MEK1 = MEK1 (Homo sapiens, UniProt Q02750); test: Protein kinase activity in vitro; type: biochemical
Sequence of MEK1 (Q02750 whole entry, species assumed): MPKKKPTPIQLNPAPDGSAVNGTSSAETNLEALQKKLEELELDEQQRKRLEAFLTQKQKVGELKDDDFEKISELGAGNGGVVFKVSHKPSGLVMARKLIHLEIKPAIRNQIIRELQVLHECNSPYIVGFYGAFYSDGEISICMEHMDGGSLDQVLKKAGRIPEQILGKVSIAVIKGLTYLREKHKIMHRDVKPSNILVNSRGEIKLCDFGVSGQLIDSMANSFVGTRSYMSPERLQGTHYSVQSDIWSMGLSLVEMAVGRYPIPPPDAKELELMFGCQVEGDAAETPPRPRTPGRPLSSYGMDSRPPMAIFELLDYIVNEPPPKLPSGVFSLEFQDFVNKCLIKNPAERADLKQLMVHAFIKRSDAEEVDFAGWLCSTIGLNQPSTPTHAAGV

GSK-3β = GSK-3β (Homo sapiens, UniProt P49841); test: Protein kinase activity in vitro; type: biochemical
Sequence of GSK-3β (P49841 whole entry, species assumed): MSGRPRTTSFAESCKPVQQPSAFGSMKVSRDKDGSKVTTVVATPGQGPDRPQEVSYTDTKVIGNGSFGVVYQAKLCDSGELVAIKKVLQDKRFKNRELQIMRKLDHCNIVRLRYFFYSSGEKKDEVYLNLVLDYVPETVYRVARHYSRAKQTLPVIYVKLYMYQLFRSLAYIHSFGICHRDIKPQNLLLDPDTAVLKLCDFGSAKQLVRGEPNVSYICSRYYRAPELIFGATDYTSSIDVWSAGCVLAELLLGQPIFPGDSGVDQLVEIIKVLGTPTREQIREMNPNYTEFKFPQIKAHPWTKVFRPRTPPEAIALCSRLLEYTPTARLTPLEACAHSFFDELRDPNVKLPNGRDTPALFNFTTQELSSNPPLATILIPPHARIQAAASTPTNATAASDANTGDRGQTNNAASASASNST

p38α = p38α (Homo sapiens, UniProt Q16539); test: Protein kinase activity in vitro; type: biochemical
Sequence of p38α (Q16539 whole entry): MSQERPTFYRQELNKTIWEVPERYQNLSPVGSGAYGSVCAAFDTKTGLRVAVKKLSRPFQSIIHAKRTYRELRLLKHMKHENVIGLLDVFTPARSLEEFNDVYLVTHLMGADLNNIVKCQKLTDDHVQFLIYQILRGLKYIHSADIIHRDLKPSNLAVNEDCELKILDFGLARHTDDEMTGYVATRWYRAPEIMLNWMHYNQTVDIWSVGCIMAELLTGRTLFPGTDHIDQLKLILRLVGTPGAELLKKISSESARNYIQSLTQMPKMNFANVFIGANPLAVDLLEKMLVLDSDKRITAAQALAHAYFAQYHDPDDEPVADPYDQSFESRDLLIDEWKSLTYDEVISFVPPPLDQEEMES

PKCα = PKCα (Homo sapiens, UniProt P17252); test: Protein kinase activity in vitro; type: biochemical
p38γ = p38γ (Homo sapiens, UniProt P53778); test: Protein kinase activity in vitro; type: biochemical
Sequence of p38γ (P53778 whole entry): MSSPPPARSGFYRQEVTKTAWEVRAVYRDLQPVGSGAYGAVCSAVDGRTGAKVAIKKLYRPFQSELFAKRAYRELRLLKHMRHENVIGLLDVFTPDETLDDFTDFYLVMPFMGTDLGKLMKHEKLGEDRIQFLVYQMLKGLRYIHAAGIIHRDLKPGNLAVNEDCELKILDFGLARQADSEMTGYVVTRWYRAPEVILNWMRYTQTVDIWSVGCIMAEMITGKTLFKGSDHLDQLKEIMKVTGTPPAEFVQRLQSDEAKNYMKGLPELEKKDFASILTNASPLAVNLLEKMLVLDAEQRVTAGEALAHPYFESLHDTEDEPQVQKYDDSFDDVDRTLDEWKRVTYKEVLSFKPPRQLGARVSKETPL

PKCε = PKCε (Homo sapiens, UniProt Q02156); test: Protein kinase activity in vitro; type: biochemical
PKCβ1 = PKCβ1 (Homo sapiens, UniProt P05771); test: Protein kinase activity in vitro; type: biochemical
PKCγ = PKCγ (Homo sapiens, UniProt P05129); test: Protein kinase activity in vitro; type: biochemical
Cdk2/Cyclin A = Cdk2/Cyclin A (Homo sapiens, UniProt P24941); test: Protein kinase activity in vitro; type: biochemical
p38β = p38β (Homo sapiens, UniProt Q15759); test: Protein kinase activity in vitro; type: biochemical
Ca^2+/Calmodulin-Dep. II = test: Protein kinase activity in vitro; type: biochemical
PKCμ = PKCμ (Homo sapiens, UniProt Q15139); test: Protein kinase activity in vitro; type: biochemical
Sequence of PKCμ (Q15139 whole entry): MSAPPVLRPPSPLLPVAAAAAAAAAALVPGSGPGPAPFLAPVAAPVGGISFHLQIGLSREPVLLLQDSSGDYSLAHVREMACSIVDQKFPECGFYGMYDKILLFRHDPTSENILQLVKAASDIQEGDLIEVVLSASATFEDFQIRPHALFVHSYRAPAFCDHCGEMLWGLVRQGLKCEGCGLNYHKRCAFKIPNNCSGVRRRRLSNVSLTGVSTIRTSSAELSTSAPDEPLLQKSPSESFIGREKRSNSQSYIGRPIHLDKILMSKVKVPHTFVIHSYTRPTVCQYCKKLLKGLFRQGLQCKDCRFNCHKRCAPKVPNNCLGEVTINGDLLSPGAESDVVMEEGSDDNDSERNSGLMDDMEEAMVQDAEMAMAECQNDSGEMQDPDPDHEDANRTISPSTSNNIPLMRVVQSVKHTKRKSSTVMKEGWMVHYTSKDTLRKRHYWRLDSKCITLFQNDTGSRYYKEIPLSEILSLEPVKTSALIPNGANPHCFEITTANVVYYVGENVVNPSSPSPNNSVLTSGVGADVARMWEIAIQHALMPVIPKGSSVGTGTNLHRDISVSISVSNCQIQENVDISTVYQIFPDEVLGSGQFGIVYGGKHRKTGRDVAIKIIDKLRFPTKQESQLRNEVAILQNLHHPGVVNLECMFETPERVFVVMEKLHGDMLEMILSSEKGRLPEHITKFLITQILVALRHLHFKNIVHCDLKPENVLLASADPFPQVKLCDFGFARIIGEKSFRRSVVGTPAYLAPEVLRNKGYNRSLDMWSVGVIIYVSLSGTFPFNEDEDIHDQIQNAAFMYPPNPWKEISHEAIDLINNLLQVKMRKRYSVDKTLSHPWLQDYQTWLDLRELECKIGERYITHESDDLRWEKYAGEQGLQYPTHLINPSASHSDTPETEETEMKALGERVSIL

PKCδ = PKCδ (Homo sapiens, UniProt Q05655); test: Protein kinase activity in vitro; type: biochemical
EGF Receptor = EGF Receptor (Homo sapiens, UniProt P00533); test: Protein kinase activity in vitro; type: biochemical
Lck = Lck (Homo sapiens, UniProt P06239); test: Protein kinase activity in vitro; type: biochemical
PKCβ2 = PKCβ2 (Homo sapiens, UniProt P05771); test: Protein kinase activity in vitro; type: biochemical

Sequence of Cdk5/p35 (Q00535 whole entry, species assumed): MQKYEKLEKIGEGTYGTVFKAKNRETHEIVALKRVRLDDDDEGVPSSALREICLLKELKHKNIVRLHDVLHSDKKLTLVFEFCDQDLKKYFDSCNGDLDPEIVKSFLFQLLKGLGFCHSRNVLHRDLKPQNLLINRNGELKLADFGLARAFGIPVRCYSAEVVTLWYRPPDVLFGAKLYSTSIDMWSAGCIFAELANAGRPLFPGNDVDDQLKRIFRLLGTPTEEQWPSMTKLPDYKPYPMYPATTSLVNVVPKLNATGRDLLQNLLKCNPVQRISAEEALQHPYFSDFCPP
Sequence of Cdk5/p35 (Q15078 whole entry partner, species assumed): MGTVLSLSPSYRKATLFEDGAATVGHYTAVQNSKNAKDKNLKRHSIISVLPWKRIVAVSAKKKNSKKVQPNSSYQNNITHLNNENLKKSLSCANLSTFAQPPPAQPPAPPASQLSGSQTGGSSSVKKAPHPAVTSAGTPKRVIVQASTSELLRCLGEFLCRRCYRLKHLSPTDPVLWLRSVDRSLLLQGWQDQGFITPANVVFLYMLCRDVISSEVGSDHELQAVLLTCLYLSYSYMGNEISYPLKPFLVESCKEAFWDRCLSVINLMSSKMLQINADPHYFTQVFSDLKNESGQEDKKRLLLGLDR

inhibition at 10 µM (Cdk5/p35): -2% | inhibition at 10 µM (Insulin receptor): 15% | inhibition at 10 µM (Lyn A): 37% | % inhibition at 10 μM (Lyn A; 10 µM): 42% | inhibition at 10 µM (PKBα/Akt1): 17% | inhibition at 10 µM (CHK1): 10% | inhibition at 10 µM (Cdk1/Cyclin B): -3% | inhibition at 10 µM (IKK-1): 2% | inhibition at 10 µM (IKK-2): 1% | inhibition at 10 µM (p38δ): -19% | inhibition at 10 µM (JNK1α1): 11% | inhibition at 10 µM (pp60^C-SRC): -3% | % inhibition at 10 μM (PKA, non-selective): 27% | inhibition at 10 µM (PDK1): 3% | inhibition at 10 µM (ERK1): 51% | inhibition at 10 µM (PKCζ): -9% | inhibition at 10 µM (p70^56k): -3% | inhibition at 1 µM (JNK2α2; 1 μM): 40% | inhibition at 10 µM (JNK2α2; 10 μM): 81% | IC50 (ALK5): 5.3 nM | inhibition at 10 µM (PKCη): -6% | inhibition at 10 µM (CHK2): 18% | inhibition at 10 µM (HER2 receptor): 11% | inhibition at 1 µM (MEK1; 1 μM): 4% | inhibition at 10 µM (MEK1; 10 μM): 66% | inhibition at 10 µM (GSK-3β): 21% | inhibition at 1 µM (p38α; 1 μM): 25% | inhibition at 10 µM (p38α; 10 μM): 76% | inhibition at 10 µM (PKCα): -6% | inhibition at 10 µM (p38γ): 15% | inhibition at 10 µM (PKCε): 1% | inhibition at 10 µM (PKCβ1): 10% | inhibition at 10 µM (PKCγ): 3% | inhibition at 10 µM (Cdk2/Cyclin A): 6% | inhibition at 10 µM (p38β): 48% | % inhibition at 10 μM (Ca^2+/Calmodulin-Dep. II): 1% | inhibition at 1 µM (PKCμ; 1 μM): 31% | inhibition at 10 µM (PKCμ; 10 μM): 64% | inhibition at 10 µM (PKCδ): 3% | inhibition at 10 µM (EGF Receptor): 2% | inhibition at 10 µM (Lck): 17% | inhibition at 10 µM (PKCβ2): -2%
Compound: Cc1cccc(-c2[nH]c(Cc3cccc(C(N)=O)c3)nc2-c2ccc3nccnc3c2)n1 [Example 41, 3-((5-(6-methylpyridin-2-yl)-4-(quinoxalin-6-yl)-1(3)H-imidazol-2-yl)methyl)benzamide]
